# According to US12377112B2, “Methods of treating neurocognitive disorders, chronic pain and reducing inflammation” (priority 2019, dated 2025):
# Tested on: healthy subjects
# Assay: Phase 1 study: Life Changes Inventory (LCI)
# Type: in vivo, human
# Description: In some embodiments, the Life Changes Inventory (LCI) questionnaire is utilized to evaluate the safety and/or efficacy of psilocybin. The LCI is designed as a questionnaire to investigate those variables present in the day-to-day experience of adults that might relate either to stability or decline of intellectual ability.
# The following list of outcome measures are non-exhaustive: • a. The short-term change from Baseline (Day −1 [Visit 2]) to Day 7 (Visit 5) in cognitive measures of attention, spatial and working memory and executive function was measured by a composite score of the CANTAB Panel (Spatial Working Memory [SWM], Rapid Visual Information Processing [RVP], Paired Associates Learning [PAL]). • b. The short-term change from Baseline (Day −1 [Visit 2]) to Day 7 (Visit 5) in Social Cognition Panel scales (Pictorial Empathy Test [PET], Reading the Mind in the eyes Test [RMET], Toronto Empathy Questionnaire [TEQ], Social Value Orientation [SVO], Scale of Social Responsibility [SSR]). • c. The change from Baseline (Day −1 [Visit 2]) to Day 28 (Visit 6) in cognitive measures of attention, spatial and working memory and executive function as measured by a composite score of the CANTAB Panel (SWM, RVP, PAL). • d. The long-term change from Baseline (Day −1 [Visit 2]) to Day 84 (Visit 7) in Social Cognition Panel scales (PET, RMET, TEQ, SVO, SSR). • e. Dose-related differences between cognitive effects of psilocybin at Baseline (Day −1 [Visit 2]), Day 7 (Visit 5) and Day 28 (Visit 6), as measured by a composite score of the CANTAB Panel (SWM, RVP, PAL). • f. Dose-related differences between psychological effects of psilocybin at Baseline (Day −1 [Visit 2]), Day 7 (Visit 5) and Day 84 (Visit 7), as measured by Social Cognition Panel scales (PET, RMET, TEQ, SVO, SSR). • g. Differences in cognitive effects of psilocybin between psilocybin-naïve and experienced subjects at Baseline (Day −1 [Visit 2]), Day 7 (Visit 5) and Day 28 (Visit 6), as measured by a composite score of the CANTAB Panel (SWM, RVP, PAL). • h. Differences in Positive and Negative Affect Schedule (PANAS) after study drug administration on Day 0 (Visit 3). • i. Differences between psilocybin and placebo in the Emotion Recognition Test (ERT), Intra-Extra Dimensional Set Shift (IED), One Touch Stockings (OTS), Verbal Fluency and Digit Span Forward at Day 7 (Visit 5). • j. A composite score of the CANTAB Panel, including the following tests: • i. Spatial Working Memory (SWM) (performed at Visit 2, Visit 5, and Visit 6). • ii. Rapid Visual Information Processing (RVP) (performed at Visit 2, Visit 5, and Visit 6). • iii. Paired Associates Learning (PAL) (performed at Visit 2, Visit 5, and Visit 6). • k. Cognitive Flexibility Panel • i. Emotion Recognition Task (ERT) (performed at Visit 5). • ii. Intra-Extra Dimensional Set Shift (IED) (performed at Visit 5). • iii. One Touch Stockings (OTS) (performed at Visit 5). • iv. Verbal Fluency (performed at Visit 5). • v. Digit Span Forward (performed at Visit 5). • l. Five Dimension Altered States of Consciousness questionnaire (5D-ASC) (performed at Visit 3). • m. PANAS (performed at Visit 2 and Visit 3). • n. NEO-Five Factor Inventory (NEO-FFI) (performed at Visit 2, Visit 5, and Visit 7). • o. Symptom Checklist-90 item (SCL-90) (performed at Visit 2, Visit 5, and Visit 7). • p. Life Changes Inventory (LCI): The LCI measures changes in attitudes and values after near-death experiences often used to evaluate personal transformation following spiritually oriented experiences and practices. (performed at Visit 5 and Visit 7). • q. Social Cognition Panel scales • i. Pictorial Empathy Test (PET) (performed at Visit 2, Visit 5, and Visit 7). • ii. Reading the Mind in the Eyes Test (RMET) (performed at Visit 2, Visit 5, and Visit 7). • iii. Social Value Orientation (SVO) (performed at Visit 2, Visit 5, and Visit 7). • iv. Toronto Empathy Questionnaire (TEQ) (performed at Visit 2, Visit 5, and Visit 7). • v. […]
# [1] = Psilocybin 10 mg - Placebo, Day 7
# [2] = Psilocybin 10 mg - Placebo, Day 84
# [3] = Psilocybin 25 mg - Placebo, Day 7
# [4] = Psilocybin 25 mg - Placebo, Day 84
# [5] = Psilocybin (25 mg - 10 mg), Day 7
# [6] = Psilocybin (25 mg - 10 mg), Day 84
smiles,measurement,setting,value
"CN(C)CCc1c[nH]c2cccc(OP(=O)(O)O)c12 [Psilocybin, psilocybin]","LCI appreciation for life, LS mean difference",[1],0.6
same,"LCI appreciation of death, LS mean difference",[1],0.1
same,"LCI concern for others, LS mean difference",[1],0.4
same,"LCI concern for worldly achievement, LS mean difference",[1],−0.2
same,"LCI concern social, LS mean difference",[1],0.1
same,"LCI quest for meaning, LS mean difference",[1],0.4
same,"LCI religiousness, LS mean difference",[1],−0.1
same,"LCI self-acceptance, LS mean difference",[1],0.7
same,"LCI spirituality, LS mean difference",[1],0.3
same,"LCI-absolute change, LS mean difference",[1],0.4
same,"LCI appreciation for life, LS mean difference",[2],0.6
same,"LCI appreciation of death, LS mean difference",[2],0.2
same,"LCI concern for others, LS mean difference",[2],0.4
same,"LCI concern for worldly achievement, LS mean difference",[2],−0.2
same,"LCI concern social, LS mean difference",[2],0.1
same,"LCI quest for meaning, LS mean difference",[2],0.4
same,"LCI religiousness, LS mean difference",[2],−0.0
same,"LCI self-acceptance, LS mean difference",[2],0.5
same,"LCI spirituality, LS mean difference",[2],0.4
same,"LCI-absolute change, LS mean difference",[2],0.4
same,"LCI appreciation for life, LS mean difference",[3],0.5
same,"LCI appreciation of death, LS mean difference",[3],0.1
same,"LCI concern for others, LS mean difference",[3],0.4
same,"LCI concern for worldly achievement, LS mean difference",[3],−0.1
same,"LCI concern social, LS mean difference",[3],0.2
same,"LCI quest for meaning, LS mean difference",[3],0.4
same,"LCI religiousness, LS mean difference",[3],0.0
same,"LCI self-acceptance, LS mean difference",[3],0.5
same,"LCI spirituality, LS mean difference",[3],0.2
same,"LCI-absolute change, LS mean difference",[3],0.3
same,"LCI appreciation for life, LS mean difference",[4],0.5
same,"LCI appreciation of death, LS mean difference",[4],0.2
same,"LCI concern for others, LS mean difference",[4],0.5
same,"LCI concern for worldly achievement, LS mean difference",[4],−0.1
same,"LCI concern social, LS mean difference",[4],0.1
same,"LCI quest for meaning, LS mean difference",[4],0.4
same,"LCI religiousness, LS mean difference",[4],0.0
same,"LCI self-acceptance, LS mean difference",[4],0.5
same,"LCI spirituality, LS mean difference",[4],0.4
same,"LCI-absolute change, LS mean difference",[4],0.4
same,"LCI appreciation for life, LS mean difference",[5],−0.2
same,"LCI appreciation of death, LS mean difference",[5],−0.0
same,"LCI concern for others, LS mean difference",[5],0.0
same,"LCI concern for worldly achievement, LS mean difference",[5],0.1
same,"LCI concern social, LS mean difference",[5],0.1
same,"LCI quest for meaning, LS mean difference",[5],0.0
same,"LCI religiousness, LS mean difference",[5],0.1
same,"LCI self-acceptance, LS mean difference",[5],−0.1
same,"LCI spirituality, LS mean difference",[5],−0.1
same,"LCI-absolute change, LS mean difference",[5],−0.1
same,"LCI appreciation for life, LS mean difference",[6],−0.1
same,"LCI appreciation of death, LS mean difference",[6],0.0
same,"LCI concern for others, LS mean difference",[6],0.1
same,"LCI concern for worldly achievement, LS mean difference",[6],0.1
same,"LCI concern social, LS mean difference",[6],0.0
same,"LCI quest for meaning, LS mean difference",[6],−0.0
same,"LCI religiousness, LS mean difference",[6],0.1
same,"LCI self-acceptance, LS mean difference",[6],0.0
same,"LCI spirituality, LS mean difference",[6],−0.0
same,"LCI-absolute change, LS mean difference",[6],−0.0
